Test results reported in US10844051B2, “Substituted oxazoles for the treatment of cancer” (THE ROYAL INSTITUTION FOR THE ADCANCEMENT OF …, priority 2015, dated 2020).
“Also recorded” adds a separate entry of the source.

Key:
[1] = tested on: EZH2, c-Myc and ERG expression in VCaP cells; assay: Expression of EZH2, c-Myc and ERG in VCaP cells; format: cell-based; settings: 10 μM, 72 hours
Procedure: VCaP cells were exposed to DMSO vehicle control, 648, 698 and 891 at 10 μM for 72 hours in DMEM medium plus 10% FBS or phenol red-free DMEM medium plus 10% charcoal-stripped FBS (CS-FBS).

[2] = tested on: C4-2B cells; assay: Matrigel invasion assay, C4-2B; format: cell-based; settings: 48 hours
Procedure: (§1) Invasion assay was performed using (8.0 μm pore size) BD Matrigel Invasion chambers in 24-well plate (Catalog: 354480, BD Biosc.). 750 μL medium (with 20% FBS) was added into lower chamber of each well (DMEM for VCaP, RPMI 1640 for C4-2B and DU145). Next, 5×10^5 VCaP or 5×10^5 C4-2B or 1×10^4DU145 cells in 500 μL medium (with 0.5% FBS) were seeded into the upper chamber of each well. DMSO vehicle or compounds in DMSO solution were added into upper chamber to reach the designated doses. After 48 hours incubation, the invasive cells attached to the lower surface of the membrane insert were fixed in 10% formalin at room temperature for 30 minutes and stained with 0.05% crystal violet. The number of invasive cells was then counted under a microscope. Invasion experiments were performed in duplicate. ***p<0.0001 when compared with vehicle control.

[3] = tested on: VCaP cells; assay: Matrigel invasion assay, VCaP; format: cell-based; settings: 48 hours
Procedure: as §1

[4] = biological target: T1, ETV1 (Homo sapiens, UniProt P50549); assay: ETV1-dependent reporter assay in HEK293 cells; format: cell-based; settings: 48 hours
T1 construct: expressed in transfected cells; host or cells: HEK293
T1 sequence (P50549 1-477): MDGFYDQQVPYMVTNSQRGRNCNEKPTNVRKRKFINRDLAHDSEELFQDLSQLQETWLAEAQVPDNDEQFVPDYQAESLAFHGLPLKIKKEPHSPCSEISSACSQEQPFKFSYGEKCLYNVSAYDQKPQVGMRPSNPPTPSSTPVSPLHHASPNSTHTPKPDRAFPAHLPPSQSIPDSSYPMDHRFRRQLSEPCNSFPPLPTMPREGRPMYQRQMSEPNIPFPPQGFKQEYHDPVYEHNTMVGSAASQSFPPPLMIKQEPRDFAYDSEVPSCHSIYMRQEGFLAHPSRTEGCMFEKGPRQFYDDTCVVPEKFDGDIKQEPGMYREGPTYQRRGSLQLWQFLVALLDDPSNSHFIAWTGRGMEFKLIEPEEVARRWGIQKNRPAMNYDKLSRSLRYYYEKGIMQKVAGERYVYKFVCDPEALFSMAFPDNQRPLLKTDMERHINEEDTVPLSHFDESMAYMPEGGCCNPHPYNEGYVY
Procedure: (§2) HEK293 cells were transiently transfected with empty vector (for the NT) or ERG-expressing plasmid as well as pRL-TK (internal control) and PUx3-Luc reporter. Cells were then exposed to DMSO vehicle or compounds at designated doses for 48 hours. Experiments were done in triplicate.
Experiments were done as described above in FIG. 1.1a) except that ERG plasmid was replaced by ETV1 plasmid.

[5] = biological target: T2, ERG (Homo sapiens, UniProt P11308); assay: Surface Plasmon Resonance (SPR) analysis on amine-coupled ERG; format: binding
T2 sequence (P11308 1-486 isoform P11308-3): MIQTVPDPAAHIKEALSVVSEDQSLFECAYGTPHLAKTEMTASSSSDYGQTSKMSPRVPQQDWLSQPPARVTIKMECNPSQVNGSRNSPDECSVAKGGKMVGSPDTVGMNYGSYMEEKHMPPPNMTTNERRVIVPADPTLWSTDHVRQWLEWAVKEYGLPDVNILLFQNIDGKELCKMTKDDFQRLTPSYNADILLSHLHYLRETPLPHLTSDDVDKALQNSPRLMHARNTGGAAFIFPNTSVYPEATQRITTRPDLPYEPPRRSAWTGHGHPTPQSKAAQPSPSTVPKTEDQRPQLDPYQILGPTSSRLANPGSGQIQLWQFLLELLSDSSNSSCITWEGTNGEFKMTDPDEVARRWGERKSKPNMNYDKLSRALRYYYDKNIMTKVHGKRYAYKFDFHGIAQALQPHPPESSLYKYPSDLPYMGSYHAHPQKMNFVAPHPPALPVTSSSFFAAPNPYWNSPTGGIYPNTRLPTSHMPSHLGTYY
Procedure: Steady-state kinetics of compound 648, YK-4-279 (positive control) and bicalutamide (Bic) (negative control) over amine-coupled ERG surfaces with 50 μM injection (25 μL/min×120 sec association+120 sec dissociation). High-density ERG (6000 RU) and reference surface (no ERG) were amine-coupled to CM5 sensors using BIACORE 3000 instrumentation. YK-4-279 is a known ERG inhibitor. Bic is an antagonist of the androgen receptor.
FIG. 1.5b) Preliminary SPR data to characterize binding affinity of compound 648. Rapid on/off kinetics for compound 648 when titrated over amine-coupled ERG surfaces at 0, 10, 20, 30, 40, and 50 μM (25 μL/min×120 sec association+120 sec dissociation).

[6] = biological target: T2, ERG; assay: ERG-dependent reporter assay in HEK293 cells; format: cell-based; design: expressed in transfected cells; host or cells: HEK293; settings: PUx3-Luc reporter, 48 hours, designated doses
Procedure: as §2

[7] = tested on: LNCaP-pcDNA and LNCaP-GATA2 cells; assay: MTT assay in LNCaP-pcDNA and LNCaP-GATA2 cells; format: cell-based; settings: 72 hours
Procedure: Cells were exposed to DMSO vehicle or compounds for 72 hours. Vial cells were evaluated by MTT assays. Experiments were done in triplicate.

[8] = biological target: T3, ESE-1 (Homo sapiens, UniProt P78545); assay: ESE-1 dependent reporter assay in HEK293 cells; format: cell-based; settings: 48 hours
T3 construct: expressed in transfected cells; host or cells: HEK293
T3 sequence (P78545 1-371): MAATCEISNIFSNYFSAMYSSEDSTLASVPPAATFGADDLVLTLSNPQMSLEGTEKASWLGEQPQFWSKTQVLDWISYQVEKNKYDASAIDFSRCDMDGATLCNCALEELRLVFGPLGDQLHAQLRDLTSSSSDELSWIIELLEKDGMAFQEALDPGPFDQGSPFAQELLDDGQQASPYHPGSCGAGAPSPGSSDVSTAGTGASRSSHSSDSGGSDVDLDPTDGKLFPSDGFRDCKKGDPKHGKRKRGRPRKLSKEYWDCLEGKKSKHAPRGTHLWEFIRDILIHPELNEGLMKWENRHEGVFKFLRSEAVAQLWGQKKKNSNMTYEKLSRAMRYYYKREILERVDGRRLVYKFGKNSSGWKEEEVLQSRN
Procedure: as §2
Experiments were done as described above in FIG. 1.1a) except that ERG plasmid was replaced by ESE-1 plasmid.

[9] = biological target: T4, ETS-2 (Homo sapiens, UniProt P15036); assay: ETS-2 dependent reporter assay in HEK293 cells; format: cell-based; settings: 48 hours
T4 construct: expressed in transfected cells; host or cells: HEK293
Procedure: as §2
Experiments were done as described above in FIG. 1.1a) except that ERG plasmid was replaced by ETS-2 plasmid.

T4 sequence (P15036 whole entry, species assumed): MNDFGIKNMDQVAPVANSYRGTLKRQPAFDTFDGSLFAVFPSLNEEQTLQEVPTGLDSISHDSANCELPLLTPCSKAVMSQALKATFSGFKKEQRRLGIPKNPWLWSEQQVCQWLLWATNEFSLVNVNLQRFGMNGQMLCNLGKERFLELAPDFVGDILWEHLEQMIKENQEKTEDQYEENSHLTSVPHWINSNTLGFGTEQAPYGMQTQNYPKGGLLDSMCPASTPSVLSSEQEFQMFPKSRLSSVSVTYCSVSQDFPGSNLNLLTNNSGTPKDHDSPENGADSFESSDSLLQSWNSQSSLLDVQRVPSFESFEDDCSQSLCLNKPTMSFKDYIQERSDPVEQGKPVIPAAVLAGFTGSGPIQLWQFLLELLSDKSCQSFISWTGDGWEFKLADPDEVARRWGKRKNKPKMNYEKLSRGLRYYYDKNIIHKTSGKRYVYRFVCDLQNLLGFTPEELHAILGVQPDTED

For `Oc1cccc(-c2nc(Cc3c[nH]c4ccccc34)oc2-c2cccc(O)c2)c1` [Compound 648], the “inhibition of expression of EZH2, c-Myc and ERG” value [1] was “inhibit expression of EZH2, c-Myc and ERG”, the “inhibition of invasion of C4-2B cells” value [2] was “potently inhibits invasion” and the “inhibition of invasion of VCaP cells” value [3] was “potently inhibits invasion”. The “ETV1 inhibition in ETV1-dependent reporter assay” value [4] was “ETV1 inhibitors”, the “direct binding with human ERG protein (SPR)” value ([5]; 50 μM injection, amine-coupled ERG) was “direct binding” and the “KD for ERG, steady-state affinity model (SPR)” value ([5]; titrated at 0-50 μM, preliminary data) was “low micromolar”. For the same molecule, the “ERG inhibition in ERG-dependent reporter assay” value [6] was “potent inhibitor of ERG; also recorded: ERG inhibitors”.
`CC(O)(CS(=O)(=O)c1ccc(F)cc1)C(=O)Nc1ccc(C#N)c(C(F)(F)F)c1` (centres unmarked) [bicalutamide, reference compound] was tested, and the “cytotoxicity in LNCaP-GATA2 compared with LNCaP-pcDNA cells (MTT)” value [7] was “less active in LNCaP-GATA2 cells”.
With `N#CC(NC(=O)c1ccccc1)SCc1ccccc1` (centres unmarked) [Compound V154] the “ESE-1 inhibition in ESE-1 dependent reporter assay” value [8] was “ESE-1 inhibitors”, the “ETS-2 inhibition in ETS-2 dependent reporter assay” value [9] was “ETS-2 inhibitor” and the “ERG inhibition in ERG-dependent reporter assay” value [6] was “ERG inhibitors”.
